Measurements: patent US5886000A, “Anti-HIV agent” (Nissui Pharmaceutical Co., Ltd,, priority 1994, dated 1999)
Where two headings read alike, the source gives them in different places.

How the values were obtained:
Tat = target: T1, Tat (Human immunodeficiency virus type 1 group M subtype B, UniProt P04608); assay: Tat-inhibiting effect (reporter plasmid and Tat activator plasmid cotransfected into COS-7 cells); format: cell-based, HIV
T1 construct: expressed in transfected cells; host or cells: COS-7 cells
Description: After a reporter plasmid and an activator plasmid of Tat were cotransfected into COS-7 cells by a DEAE dextran method to culture the cells at 37° C. for 24 hours in the presence of 5% CO2, the transfectant was added to 96-well microplates, in which a test agent had been placed in advance, in a proportion of 1×10^4 cells/well, followed by reculture at 37° C. for 3 days in the presence of 5% CO2. A supernatant (50 μl) of each of the cultures was then added to another 96-well microplate in which p-nitrophenyl phosphate as a substrate and a buffer had been placed, followed by incubation at 37° C. for 3 hours. The variation in absorbance at 405 nm due to p-nitrophenol formed was then measured to determine the presence of a Tat-inhibiting effect.

CEM cells = assay: Cytotoxicity test, CEM cells (trypan blue dye exclusion); format: cell-based; conditions: concentrations not greater than 500 μM
Description: (§1) Culture solutions (10 ml) of CEM and a strain CEM/LAV persistently producing HIV-1, both, in a logarithmic growth phase were prepared with media containing various concentrations of a test agent so as to give a concentration of 2.5×10^5 cells/ml, followed by culture at 37° C. in the presence of 5% CO2. After pipetting each cells culture solution every 24 hours, it was collected to count the number of living cells and the number of killed cells by a trypan blue dye exclusion test.

CEM/LAV cells = assay: Cytotoxicity test, CEM/LAV cells persistently producing HIV-1 (trypan blue dye exclusion); format: cell-based; conditions: 500 μM
Description: as §1

[1] = tested on: primarily infected CEM cells; assay: Effect on growth of primarily infected CEM cells; format: cell-based, HIV-1; conditions: concentrations not greater than 500 μM
Description: (§2) Cells were collected from a culture solution (1.0×10^6 cells/ml, 108 ml) of CEM in a logarithmic growth phase by centrifugation (260×g, 5 minutes). An HIV-1 virus solution (12×10^5 TCID50) was added to the cells to culture them at 37° C. for 24 hours in 180 ml of a medium, thereby adsorbing the virus thereon. After a culture supernatant containing the virus was then removed by centrifugation (260×g, 5 minutes), and the residue was washed three times with 50 ml of an RPMI-1640 basal medium under centrifugation (260×g, 5 minutes), media separately containing predetermined concentrations of test agents were used to prepare cell suspensions (1×10^5 cells/ml, 50 ml×2 sample for each concentration of the test agents). Each of these cell culture solutions was collected in 25-ml portions every 24 hours until 96 hours passed by. The collected solutions were subjected to SDS-PAGE, followed by western immunoblotting to detect virus-constituting proteins. Incidentally, an HIV-1 positive serum was used as a primary antibody.

[2] = tested on: HIV-1 in primarily infected CEM cells; assay: Viral infectious titer in culture supernatant of primarily infected CEM cells; format: cell-based; conditions: Human immunodeficiency virus 1, CCRF-CEM, % of a control
[3] = tested on: HIV-constituting proteins (p24, p41); assay: Detection of HIV-constituting proteins by western immunoblotting, primarily infected CEM cells; format: cell-based, HIV-1; conditions: 500 μM
Description: as §2

CEM/LAV-1 = assay: Anti-HIV activity in persistently infected CEM/LAV-1 cells; format: cell-based
Description: (§3) Predetermined concentrations of test agents were separately added to cells (2×10^5 cells/ml, 10 ml) persistently infected with HIV in a logarithmic growth phase to culture them for 96 hours, thereby counting the number of living cells and the number of killed cells every 24 hours by a trypan blue dye exclusion test to determine the cytotoxic effects of the test agents on the cells. A viral infectious titer (TCID50 /ml) in each of the culture solutions incubated for 96 hours was determined by 72-hour culture using, as an index, the giant cell formation of MT-4 cells. As a control, culture was conducted in a medium free of any agent. An anti-HIV activity (inhibition %) was determined in accordance with the following equation. [formula]

H9 /MN = assay: Anti-HIV activity in persistently infected H9 /MN cells; format: cell-based
Description: as §3

Molt-4/IIIB = assay: Anti-HIV activity in persistently infected Molt-4/IIIB cells; format: cell-based; conditions: Human immunodeficiency virus 1, IIIB, read-out: Anti-HIV activities (inhibition %)
Description: as §3

U937 /RF = assay: Anti-HIV activity in persistently infected U937 /RF cells; format: cell-based
Description: as §3

[4] = tested on: CEM/LAV-1, H9 /MN and Molt-4/IIIB cells; assay: Anti-HIV activity, summary over CEM/LAV-1, H9 /MN and Molt-4/IIIB cells; format: cell-based; conditions: 500 μM
Description: as §3

AIDS = conditions: clinical use; cited from earlier work
[5] = COS-7, control = 100, read-out: Specific activity (%) (Average ± SE)
[6] = Human immunodeficiency virus 1, 125 μM, 96 hours, read-out: Anti-HIV activities (inhibition %)
[7] = Human immunodeficiency virus 1, 500 μM, 96 hours, read-out: Anti-HIV activities (inhibition %)
[8] = Human immunodeficiency virus 1, 50 μM, 96 hours, read-out: Anti-HIV activities (inhibition %)
[9] = Human immunodeficiency virus 1, 96 h, read-out: Anti-HIV activities (inhibition %)
[10] = Human immunodeficiency virus 1, U-937, 50 μM, 96 hours, read-out: Anti-HIV activities (inhibition %)

T1 sequence (P04608 whole entry): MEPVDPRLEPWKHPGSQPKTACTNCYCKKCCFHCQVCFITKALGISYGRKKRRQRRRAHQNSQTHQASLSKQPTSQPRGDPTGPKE

CC(=C(CCO)SSC(CCO)=C(C)N(C=O)Cc1cnc(C)nc1N)N(C=O)Cc1cnc(C)nc1N [Thiamine disulfide, thiamine disulfide]
activity at 125 µM (Tat; [5]): 92.3 ± 6.1% | activity at 250 µM (Tat; [5]): 64.4 ± 6.1% | activity at 500 µM (Tat; [5]): 36.1 ± 6.3% | inhibition of the activity of Tat (Tat; concentrations of 125-500 μM): inhibited the activity of Tat in dependence on dose | effect on growth and proliferation of CEM cells (CEM cells): did not affect the growth and proliferation | effect on growth and proliferation of CEM/LAV cells (CEM/LAV cells): clearly inhibited the growth and proliferation | number of killed cells (CEM/LAV cells): the number of killed cells did not increase | effect on growth of primarily infected CEM cells [1]: did not affect the growth | activity at 500 µM [2]: 0.3% | formation of p24 and p41 protein in culture supernatant [3]: neither p24 protein nor p41 protein was formed | inhibition at 125 µM (CEM/LAV-1; [6]): 51% | inhibition at 500 µM (CEM/LAV-1; [7]): 90% | inhibition at 125 µM (H9 /MN; [6]): 90% | inhibition at 500 µM (H9 /MN; [7]): 99% | inhibition at 125 µM (Molt-4/IIIB; MOLT-4, 125 μM, 96 hours): 80% | inhibition at 500 µM (Molt-4/IIIB; MOLT-4, 500 μM, 96 hours): 97% | inhibition at 125 µM (U937 /RF; Human immunodeficiency virus 1, U-937, 125 μM, 96 hours, read-out: Anti-HIV activities (inhibition %)): 0% | inhibition at 500 µM (U937 /RF; Human immunodeficiency virus 1, U-937, 500 μM, 96 hours, read-out: Anti-HIV activities (inhibition %)): 80% | anti-HIV activity (in words) (U937 /RF; concentration not given): marked anti-HIV activities | anti-HIV activity (in words) [4]: marked anti-HIV activities

Cc1cn([C@H]2C[C@H](N=[N+]=[N-])[C@@H](CO)O2)c(=O)[nH]c1=O [AZT, azidothymidine]
side effects (AIDS): headache, gastrointestinal disorders and a myelodepresant effect

N[C@@H](CCC(=O)N[C@@H](CS)C(=O)NCC(=O)O)C(=O)O [Glutathione]
activity at 250 µM (Tat; [5]): 110 ± 17%

CC(=C(CCO)SSCC1CCCO1)N(C=O)Cc1cnc(C)nc1N (stereo in doubt) [Fursultiamine, fursultiamine]
anti-HIV activity (in words) (CEM/LAV-1; 50 μM): marked anti-HIV activities | inhibition at 50 µM (CEM/LAV-1; [8]): 95% | anti-HIV activity (in words) (H9 /MN; 50 μM): marked anti-HIV activities | inhibition at 50 µM (H9 /MN; [9]): 96% | inhibition at 50 µM (Molt-4/IIIB; MOLT-4, 96 h): 0% | anti-HIV activity (in words) (U937 /RF; 50 μM): marked anti-HIV activities | inhibition at 50 µM (U937 /RF; Human immunodeficiency virus 1, U-937, 96 h, read-out: Anti-HIV activities (inhibition %)): 60%

O=C(O)CCCCC1CCSS1 (stereo not drawn) [α-Lipoic acid]
activity at 62.5 µM (Tat; COS-7, 62.5 μM, control = 100, read-out: Specific activity (%) (Average ± SE)): 78.8 ± 7.4% | activity at 125 µM (Tat; [5]): 41.6 ± 9.9% | activity at 250 µM (Tat; [5]): 17.5 ± 2.1%

CC(=O)N[C@@H](CS)C(=O)O [N-Acetylcysteine]
activity at 125 µM (Tat; [5]): 107 ± 13% | activity at 250 µM (Tat; [5]): 92 ± 8% | activity at 500 µM (Tat; [5]): 81.5 ± 5.7%

CC(=C(CCOC(=O)C(C)C)SSC(CCOC(=O)C(C)C)=C(C)N(C=O)Cc1cnc(C)nc1N)N(C=O)Cc1cnc(C)nc1N [Bisibutiamine, bisibutiamine]
inhibition at 50 µM (CEM/LAV-1; [9]): 0% | anti-HIV activity (in words) (H9 /MN; 50 μM): marked anti-HIV activities | inhibition at 50 µM (H9 /MN; [8]): 60% | inhibition at 50 µM (Molt-4/IIIB; MOLT-4, 50 μM, 96 hours): 0% | inhibition at 50 µM (U937 /RF; [10]): 0%

C=CCSSC(CCO)=C(C)N(C=O)Cc1cnc(C)nc1N [Alitiamine, alitiamine]
anti-HIV activity (in words) (CEM/LAV-1; 50 μM): marked anti-HIV activities | inhibition at 50 µM (H9 /MN; [8]): 0% | inhibition at 50 µM (Molt-4/IIIB; MOLT-4, 50 μM, 96 hours): 0% | inhibition at 50 µM (U937 /RF; [10]): 0%
